Source: patent publication US20240050434A1, “HORMAD1 THERAPEUTICS” (Royal Cancer Hospital, priority 2020, published 2024)
“Also recorded” adds a separate entry of the source.

Tests used:
[1] = Mortlock et al., 2007; cited from earlier work
[2] = system: RPE1 cells expressing a doxycycline-inducible HORMAD1 construct; experiment: Clonogenic survival assay (SRB) in RPE1 cells with doxycycline-inducible HORMAD1; type: cell-based; details: increasing doses, 7-14 days, normalised to vehicle
Procedure: Cell confluence was analysed every 6 hours for 10 days, using incucyte software. Data are from 3 biological replicates and analysed using a two-way ANOVA. […] RPE1 cells expressing a doxycycline-inducible HORMAD1 expression construct were exposed to doxycycline or vehicle (H2O) and were exposed to 20 nM of the Aurora B inhibitor, AZD1152-HQPA. Cell confluence was analysed every 6 hours for 10 days, using incucyte software. Data are from 3 biological replicates and analysed using a two-way ANOVA. […] 7-10 days post drugging, cells were fixed, stained with SRB, and colonies were counted using Cell Profiler. […] 10 days post drugging, cells were fixed, stained with SRB, and colonies were counted using Cell Profiler. […] RPE1 cells expressing a doxycycline-inducible HORMAD1 expression construct were exposed to doxycycline or vehicle (H2O) and to increasing doses of the Aurora B inhibitor, AZD1152-HQPA. 7-10 days post drugging, cells were fixed, stained with SRB, and colonies were counted using Cell Profiler. […] SUM159 cells expressing a doxycycline-inducible HORMAD1 expression construct were exposed to doxycycline or vehicle (H2O) and to increasing doses of the Aurora B inhibitor, AZD1152-HQPA. 10 days post drugging, cells were fixed, stained with SRB, and colonies were counted using Cell Profiler.
RPE1 cells were reverse transfected with BUB1 or control siRNA particles for 3 days. Cell lysates were collected, and analysed by western blotting using anti-BUB1 and anti-β-ACTIN antibodies. […] RPE1 cells expressing a doxycycline-inducible HORMAD1 expression construct were exposed to doxycycline or vehicle, and were reverse transfected with BUB1 or control siRNA particles. 5 days post transfection, cellular viability was estimated using cell titer glo reagent and surviving fractions were calculated relative to DMSO treated cells. […] Statistical significance estimated using a one-way ANOVA with Sidak's correction. C. Western blot illustrating expression of HORMAD1 in wild-type RPE1 cells and RPE1 cells depleted of BUB1 using CRISPR. WT and BUB1 depleted RPE1 cells expressing a doxycycline-inducible HORMAD1 expression construct, were exposed to doxycycline or vehicle for 3 days. Cell lysates were collected, and analysed by SDS-PAGE and western blotting using anti-HORMAD1, anti-H3 and anti-BUB1 antibodies. […] WT and BUB1 depleted RPE1 cells expressing a doxycycline-inducible HORMAD1 expression construct were exposed to doxycycline or vehicle. 7-10 days post doxycycline induction, cells were fixed, stained with SRB, and cellular viability was estimated using SRB absorbance readings. […] Statistical significance estimated using a one-way ANOVA with Sidak's correction. […] RPE1 expressing a doxycycline-inducible HORMAD1 expression construct, were exposed to doxycycline or vehicle. […] Cells were fixed, stained with SRB, and cellular viability was estimated using SRB absorbance readings. […] Cells were imaged every 4 hours, and confluence was continually measured using incucyte software. Growth curves were plotted, based on confluence. Data represent 3 biological replicas. […] Patient-derived organoids models were grown in culture and cell lysates collected and analysed using SDS-PAGE and western blotting using anti-HORMAD1 and anti-β-ACTIN antibodies. […] Cellular viability was estimated using cell titer glo reagent and surviving fractions were calculated relative to DMSO treated cells. […] Left, dose response curves for each organoid.

AURORA A kinase = target: T1, AURORA A kinase (Homo sapiens, UniProt O14965); details: Shimomura et al., 2010; cited from earlier work
T1 sequence (O14965 1-403): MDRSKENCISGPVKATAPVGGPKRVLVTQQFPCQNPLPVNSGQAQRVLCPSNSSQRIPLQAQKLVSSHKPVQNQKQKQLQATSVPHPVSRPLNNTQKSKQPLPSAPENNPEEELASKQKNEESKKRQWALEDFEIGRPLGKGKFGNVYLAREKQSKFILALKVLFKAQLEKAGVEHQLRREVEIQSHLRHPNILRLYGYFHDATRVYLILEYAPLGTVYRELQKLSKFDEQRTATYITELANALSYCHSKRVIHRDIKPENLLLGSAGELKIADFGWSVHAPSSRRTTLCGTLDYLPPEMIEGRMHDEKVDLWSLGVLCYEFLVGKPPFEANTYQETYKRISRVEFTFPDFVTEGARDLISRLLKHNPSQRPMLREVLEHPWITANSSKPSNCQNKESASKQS

[3] = system: RPE1 cells expressing a doxycycline-inducible HORMAD1 construct; experiment: Cell viability by cell titre glo in RPE1 cells with doxycycline-inducible HORMAD1; type: cell-based; details: increasing doses, 5 days post drug, cell titre glo, normalised to vehicle
Procedure: RPE1 cells expressing a doxycycline-inducible HORMAD1 construct were treated with doxycycline or vehicle. […] Six days post HORMAD1 induction and 5 days post drug, cell viability was estimated using cell titre glo reagent. Surviving fractions were calculated (normalised to vehicle treated cells).
RPE1 and SUM159 cells expressing a doxycycline-inducible HORMAD1 construct were treated with doxycycline or vehicle. […] Surviving fractions were calculated (normalised to vehicle treated cells). (FIGS. 7a, b and 14c and d). Data from 3 replicas was analysed using 2-way ANOVA. 5 days post drugging, cell viability was estimated using cell titre glo reagent. Surviving fractions were calculated (normalised to vehicle treated cells). Data from 4 replicas was analysed using 2-way ANOVA.
RPE1 cells expressing a doxycycline-inducible HORMAD1 construct were treated with doxycycline or vehicle. […] 5 days post drugging, cell viability was estimated using cell titre glo reagent. Surviving fractions were calculated (normalised to vehicle treated cells).
RPE1 cells expressing a doxycycline-inducible HORMAD1 construct were treated with doxycycline or vehicle in order to induce HORMAD1 expression. […] Using cell titre glo as a measure of cell viability, surviving fractions were calculated (normalised to eribulin alone).
RPE1 cells expressing a doxycycline-inducible HORMAD1 construct were treated with doxycycline or vehicle. […] Using cell titre glo as a measure of cell viability, surviving fractions were calculated (normalised to olaparib alone).

[4] = system: H1299 cells expressing shRNA targeting HORMAD1; details: 300 nM nocodazole 6 hours, then 200 nM reversine
Procedure: A. Diagram of experimental outline. Cells were exposed to doxycycline for 3 days, arrested in mitosis using 300 nM nocodazole or 100 nM Paclitaxel. Mitotic cells were filmed every 4 minutes for 1200 minutes, and the time cells remained arrested in mitosis before exiting via mitotic slippage was assessed. […] RPE1 cells expressing a doxycycline-inducible HORMAD1 cDNA expression construct were exposed to doxycycline or vehicle (H2O) for three days at which point cells were exposed to 300 nM nocodazole and filmed every 4 minutes using time-lapse microscopy. The time individual cells remained arrested in mitosis was quantified and presented as the % of cells arrested in mitosis at each time point. Data reflects a total of 125 cells from 3 biological repeats and was analysed using Mantel-Cox test. C. […] The time individual cells remained arrested in mitosis was quantified and presented as the % of cells arrested in mitosis at each time point. Data reflects a total of 125 cells from 3 biological repeats and was analysed using Mantel-Cox test. […] H1299 cells expressing two individual, doxycycline-inducible, shRNA particles targeting HORMAD1 as well as a non-targeting control were grown for three days in the presence of doxycycline at which point cell lysates were generated and analysed by SDS-PAGE and western blotting using anti-HORMAD1 and anti-β-ACTIN antibodies. […]

[5] = system: RPE1 cells expressing a doxycycline-inducible HORMAD1 expression construct; experiment: Mitotic slippage by time-lapse microscopy in nocodazole-arrested RPE1 cells; type: cell-based
Procedure: A. Diagram of experimental outline. Cells were exposed to doxycycline for 3 days, arrested in mitosis using 300 nM nocodazole or 100 nM Paclitaxel. Mitotic cells were filmed every 4 minutes for 1200 minutes, and the time cells remained arrested in mitosis before exiting via mitotic slippage was assessed. […] RPE1 cells expressing a doxycycline-inducible HORMAD1 cDNA expression construct were exposed to doxycycline or vehicle (H2O) for three days at which point cells were exposed to 300 nM nocodazole and filmed every 4 minutes using time-lapse microscopy. The time individual cells remained arrested in mitosis was quantified and presented as the % of cells arrested in mitosis at each time point. Data reflects a total of 125 cells from 3 biological repeats and was analysed using Mantel-Cox test. C. […] The time individual cells remained arrested in mitosis was quantified and presented as the % of cells arrested in mitosis at each time point. Data reflects a total of 125 cells from 3 biological repeats and was analysed using Mantel-Cox test. […] H1299 cells expressing two individual, doxycycline-inducible, shRNA particles targeting HORMAD1 as well as a non-targeting control were grown for three days in the presence of doxycycline at which point cell lysates were generated and analysed by SDS-PAGE and western blotting using anti-HORMAD1 and anti-β-ACTIN antibodies. […] The time individual cells remained arrested in mitosis was quantified and presented as the % of cells arrested in mitosis at each time point. Data reflects a total of 90 cells from 3 biological repeats and was analysed using Mantel-Cox test with Bonferonni correction. […] Mitotic cells were filmed every 2 minutes for 400 minutes, and the time taken before cells exited mitosis via mitotic slippage was assessed. […] The time individual cells remained arrested in mitosis was quantified and presented as the % of cells arrested in mitosis at each time point. […] The time individual cells remained arrested in mitosis was quantified and presented as the % of cells arrested in mitosis at each time point. […]

[6] = system: HeLa cells transfected with siRNA targeting HORMAD1; details: 300 nM nocodazole 6 hours, then 100 nM reversine
Procedure: (§1) HeLa cells were transfected with two individual siRNA particles targeting HORMAD1 as well as a non-targeting control, grown for three days at which point cell lysates were generated and analysed SDS-PAGE and western blotting using anti-HORMAD1 and anti-H3 antibodies. […] HeLa cells were transfected with two individual siRNA particles targeting HORMAD1 as well as a non-targeting control, grown for three days at which point cells were exposed to 300 nM nocodazole and filmed every 4 minutes using time-lapse microscopy. The time individual cells remained arrested in mitosis was quantified and presented as the % of cells arrested in mitosis at each time point. Data reflects a total of 125 cells from 3 biological repeats and was analysed using Mantel-Cox test with Bonferonni correction. C. […] MDA-MB-436 cells expressing two individual, doxycycline-inducible, shRNA particles targeting HORMAD1 as well as a non-targeting control were grown for three days in the presence of doxycycline at which point cell lysates were generated and analysed SDS-PAGE and western blotting using anti-HORMAD1 and anti-6-ACTIN antibodies. […] MDA-MB-436 cells expressing two individual, doxycycline-inducible, shRNA particles targeting HORMAD1 as well as a non-targeting control were grown for three days in the presence of doxycycline at which point cells were exposed to 300 nM nocodazole and filmed every 4 minutes using time-lapse microscopy. The time individual cells remained arrested in mitosis was quantified and presented as the % of cells arrested in mitosis at each time point. Data reflects a total of 50 cells from 2 biological repeats and was analysed using Mantel-Cox test with Bonferonni correction. […] The time individual cells remained arrested in mitosis was quantified and presented as the % of cells arrested in mitosis at each time point. […] The time individual cells remained arrested in mitosis was quantified and presented as the % of cells arrested in mitosis at each time point.

[7] = system: SUM159 cells induced to express HORMAD1; details: 300 nM nocodazole 6 hours, then 100 nM reversine
Procedure: as §1

[8] = system: MCF10A cells expressing a doxycycline-inducible HORMAD1 cDNA expression construct; details: 300 nM nocodazole 6 hours, then 100 nM reversine
Procedure: as §1

[9] = system: MDA-MB-436 cells expressing shRNA targeting HORMAD1; details: 300 nM nocodazole 6 hours, then 200 nM reversine
Procedure: as §1

Compound: CCN(CCCOc1ccc2c(Nc3cc(CC(=O)Nc4cccc(F)c4)n[nH]3)ncnc2c1)CCOP(=O)(O)O [AZD1152]
- conversion of prodrug in plasma [1]: rapidly converted into AZD1152-HQPA

Compound: O=C(O)[C@]1(Cc2cccc(Nc3nccs3)n2)CC[C@@H](Oc2cccc(Cl)c2F)CC1 [MK-5108]
- clonogenic survival / sensitivity of HORMAD1 expressing versus HORMAD1-negative RPE1 cells [2]: confirmed these findings; also recorded: increased Aurora inhibitor sensitivity
- concentrations inhibiting AURORA A kinase activity (AURORA A kinase): sub-nanomolar
- specificity over AURORA B and C (AURORA A kinase): ~200 fold
- growth inhibition (surviving fraction) of HORMAD1 expressing versus HORMAD1-negative RPE1 cells [3]: more effectively inhibited

Compound: AZ-3146
- clonogenic survival / sensitivity of HORMAD1 expressing versus HORMAD1-negative RPE1 cells [2]: confirmed these findings; also recorded: increased MPSI inhibitor sensitivity

Compound: c1nc2nc(Nc3ccc(N4CCOCC4)cc3)nc(NC3CCCCC3)c2[nH]1 [reversine, 2-(4-morpholinoanilino)-6-cyclohexylaminopurine]
- mitotic slippage in H1299 cells depleted of HORMAD1 [4]: delayed mitotic slippage
- time before slippage in RPE1 cells expressing only the HORMA domain ([5]; 300 nM nocodazole 6 hours, then 100 nM reversine): reduced
- mitotic slippage / mitotic exit in HORMAD1 induced RPE1 cells ([5]; 300 nM nocodazole arrest, then 100-200 nM reversine, 50 nM BOS172722 or AZD1152-HQPA): rapid mitotic exit; also recorded: premature mitotic slippage
- mitotic slippage in HeLa cells depleted of HORMAD1 [6]: delayed mitotic slippage
- mitotic slippage in SUM159 cells induced to express HORMAD1 [7]: premature mitotic slippage
- mitotic slippage in MCF10A cells induced to express HORMAD1 [8]: premature mitotic slippage
- mitotic slippage in MDA-MB-436 cells depleted of HORMAD1 [9]: delayed mitotic slippage
